The target in series [1] is T1, Nox2 (Homo sapiens, UniProt P04839).
T1 construct: endogenous in cells
T1 sequence (P04839 2-570 limits assumed): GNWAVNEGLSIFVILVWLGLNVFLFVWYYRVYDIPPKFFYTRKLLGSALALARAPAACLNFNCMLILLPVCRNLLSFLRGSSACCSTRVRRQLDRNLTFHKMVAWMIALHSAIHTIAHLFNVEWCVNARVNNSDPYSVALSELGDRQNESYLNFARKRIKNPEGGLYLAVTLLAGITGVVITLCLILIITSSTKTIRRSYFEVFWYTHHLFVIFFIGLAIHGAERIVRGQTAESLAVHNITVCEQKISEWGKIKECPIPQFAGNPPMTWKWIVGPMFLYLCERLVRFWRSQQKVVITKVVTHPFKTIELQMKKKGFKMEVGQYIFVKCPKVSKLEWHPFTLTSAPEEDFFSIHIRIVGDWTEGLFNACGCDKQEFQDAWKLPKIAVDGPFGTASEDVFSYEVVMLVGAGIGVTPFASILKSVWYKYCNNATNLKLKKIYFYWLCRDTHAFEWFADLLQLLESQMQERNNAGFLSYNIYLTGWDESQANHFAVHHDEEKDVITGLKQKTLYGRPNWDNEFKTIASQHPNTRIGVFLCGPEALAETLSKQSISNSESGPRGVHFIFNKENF
T1 sequence (P13498 2-195 partner limits assumed): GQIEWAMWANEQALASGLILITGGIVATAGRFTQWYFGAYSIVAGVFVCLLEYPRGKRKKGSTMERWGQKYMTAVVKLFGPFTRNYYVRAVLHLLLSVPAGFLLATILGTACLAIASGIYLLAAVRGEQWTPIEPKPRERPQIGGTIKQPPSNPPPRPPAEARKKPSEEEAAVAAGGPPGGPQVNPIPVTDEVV
The experiment in a line: Amplex Red/HRP assay of H2O2 production by PMA-activated dHL60 cells. As to conditions: PMA (1 µM)-activated dHL60 cells, 30 min preincubation; read-out: IC50, inhibition of H2O2 production, Amplex Red Assay. The class given is cell-based. How it is done: Human promyelocytic leukemia HL60 cells (Sigma-Aldrich) were grown in RPMI 1640 medium (Gibco, 11875-093, Billings, MT, USA) supplemented with 10% FBS (Omega Scientific (Tarzana, CA, USA)), 100 units/mL penicillin, and 100 µg/mL streptomycin, and were incubated at 37 °C and 5% carbon dioxide (CO2). For differentiation to neutrophil-like cells, HL60 cells were pelleted and resuspended in fresh media containing 1 µM of all trans-retinoic acid and incubated for four to five days. Nox2 activation was achieved by treating differentiated HL60 (dHL60) cells with 1 µM PMA [24]. Human leukemia monocytic cells, THP-1, were grown in RPMI 1640 medium + GlutaMAX^TM (Gibco, 61870-036) and supplemented with 10% FBS, 10 mM HEPES, and 1 mM sodium pyruvate and incubated at 37 °C in 5% CO2 environment. To induce differentiation into macrophages, THP-1 cells were treated with PMA (100 ng/mL) for 48 h. To test the efficacy of Nox2 inhibitors, treatment was performed with or without the inhibitor, along with PMA [35].
Plate reader-based analyses of the production of O2^•− and H2O2 by PMA-activated dHL60 cells were performed according to a published protocol with minor modifications. Briefly, for the treatment of dHL60 cells with different concentrations of the compounds, 0.5 mL deep-well 96-well plates were used to dispense and store aliquots of their 10 mM DMSO solutions. Using a Multidrop™ PicoIT dispenser (Thermo Scientific), different volumes of the solutions of candidate Nox inhibitors (10 or 50 mM in DMSO) were injected into the bottom of 0.5 mL V-bottom 96-well plates; then, they were sealed with aluminum foil (VWR, Batavia, IL, USA) using a semiautomatic thermal sealer (BT LabSystems, St. Louis, MO, USA) and stored at −20 °C to reduce freeze-thawing the solutions. The plates with inhibitors were allowed to come to room temperature before the addition of the cell suspensions. dHL60 cells were pelleted and resuspended in HBSS (Invitrogen, Waltham, MA, USA) supplemented with 25 mM HEPES (pH 7.4) and 100 µM DTPA to a cell density of 2 × 10^5 cells/mL. dHL60 cells were added to the V-bottom plates at a volume of 210 µL/well. Next, cells were incubated with inhibitors for 30 min at 37 °C in a CO2-free incubator under ambient oxygen and then transferred to black, clear-bottom 96-well plates (200 µL/well) after incubation. Freshly prepared PMA plus probe solutions in HBSS (5× concentrated, 50 µL/well) included PMA (5 µM) with CBA (500 µM) or with Amplex Red (250 µM) plus HRP (0.5 U/mL) for H2O2 detection, or with HE (50 µM) plus DNA (0.5 mg/mL) for O2^•− detection. Once probes + PMA were added, plates were sealed with sealing film and immediately placed in the pre-warmed plate readers (37 °C). Fluorescence intensities were monitored kinetically from the bottom of the plates every 1.3 min for a period of 2 h using Beckman Coulter (Brea, CA, USA) DTX880 and BMG Labtech (Ortenberg, Germany) FLUOstar Omega plate readers. DMSO alone and DPI (10 µM) were used as negative and positive controls, respectively. […] The IC50 values were determined using at least five independent measurements, each consisting of technical quadruplicates per concentration.

Series [2] has as its target T1, Nox2. The series can be described thus: Seahorse XFe96 oxygen consumption in dHL60 cells before and after PMA. In kind it is cell-based. How it is done:
Oxygen consumption in dHL60 cells was monitored before and after the sequential addition of the candidate Nox inhibitors and PMA using a Seahorse XFe96 extracellular flux analyzer (Agilent Technologies, Santa Clara, CA, USA). The cell suspension was prepared in phenol red-free RPMI medium (without bicarbonate) and aliquoted (80 µL/well) into a 96-well plate to obtain a final cell number of 2 × 10^4 cells/well. Cells were spun down and an additional amount of RPMI medium (100 µL/well) was added gently so as not to disturb the cells at the bottom of the wells. The solutions for injections were prepared 10× concentrated, loaded into the injection ports of the Seahorse XFe96 cartridge, and the volumes injected were 20 µL and 22.2 µL for the compounds tested and PMA, respectively. The oxygen consumption rates were monitored for 30 min before injection (baseline respiration rate), 60 min after injection of different concentrations of the candidate Nox inhibitors, and 2 h after injection of PMA (final concentration: 1 µM). Increases in OCR values after PMA injection were used as a measure of Nox2 activity.

A short description of series [3]: In vivo pharmacokinetics / brain penetration, species not specified (rodent models). The settings on record: rat, intraperitoneal, 20 mg/kg, rodent models. From the text:
Rapid metabolism and the inability to cross the BBB represent major obstacles in the application of bioactive agents in neurodegenerative diseases. Based on the premise that Nox2 plays a major role in oxidative damage and exacerbates neurodegenerative diseases, we envision applications of brain-permeable Nox2 inhibitors in mechanistic studies in vivo, and, long-term, in the development of novel therapeutic strategies. Therefore, we performed in vivo pharmacokinetics studies to determine the time profile of plasma concentration and accumulation of TG15-132 in the brain tissue of Sprague Dawley rats and C57BL6 mice.

A word on the IC50: it is the point on the concentration scale where inhibition reaches its midpoint. Broadly, the half-life is how long it takes for the measured level to halve. Regarding `CN(C)CCCn1c(SCCc2c[nH]c3ccccc23)nc2ccc(F)cc2c1=O` [TG15-132], the IC50 on Nox2 [1] was 7.9 ± 3 µM. Besides, the “basal respiration (OCR)” value on Nox2 [2] (1 h after compound injection, before PMA, concentrations that inhibit PMA-induced OCR) was “no inhibition of basal respiration”. The “PMA-induced OCR” value at Nox2 [2] (PMA 1 µM after 1 h compound) is “significant inhibition of PMA-induced OCR”. For the same compound, the Kp in series [3] (Sprague Dawley (rat), C57BL6 (mouse), mouse, brain, read-out: brain-to-plasma ratio (abstract)) is more than 5. Moreover, in series [3] (Sprague Dawley, plasma, read-out: plasma half-life (abstract) (converted)), the half-life is 5.6 h.

The values above are taken from PMC10525516, “Novel NADPH Oxidase-2 Inhibitors as Potential Anti-Inflammatory and Neuroprotective Agents” (Antioxidants, 2023).
